Assay results as given in article PMC4256409, “Role of Phenylalanine and Valine^10 Residues in the Antimicrobial Activity and Cytotoxicity of Piscidin-1” (PLoS ONE, 2014).
Where no end group is shown, it is not given here.

How the values were obtained:
[1] = system: MDRPA CCARM 2095; type: cell-based, multidrug-resistant P. aeruginosa; conditions: broth microdilution, 37°C, 16 h, three independent experiments in triplicate, SD 14.0%
[2] = system: MDRST CCARM 8003; type: cell-based, multidrug-resistant S. typhimurium; conditions: broth microdilution, 37°C, 16 h, three independent experiments in triplicate, SD 14.0%
[3] = system: E. coli KCTC2593; type: cell-based, Escherichia coli; conditions: KCTC2593, 16 h
[4] = system: MDRPA CCARM 2163; type: cell-based, multidrug-resistant P. aeruginosa; conditions: broth microdilution, 37°C, 16 h, three independent experiments in triplicate, SD 14.0%
[5] = system: MRSA CCARM 3090; type: cell-based, Methicillin-resistant S. aureus; conditions: CCARM 3090, 16 h
[6] = system: B. subtilis KCTC3068; type: cell-based, Bacillus subtilis; conditions: KCTC3068, 16 h
[7] = system: MDRPA CCARM 2002; type: cell-based, multidrug-resistant P. aeruginosa; conditions: broth microdilution, 37°C, 16 h, three independent experiments in triplicate, SD 14.0%
[8] = system: MDRAB CCARM 12035; type: cell-based, multidrug-resistant Acinetobacter baumanii; conditions: broth microdilution, 37°C, 16 h, three independent experiments in triplicate, SD 14.0%
[9] = system: S. typhimurium KCTC1926; type: cell-based, Salmonella typhimurium; conditions: KCTC1926, 16 h
[10] = system: MDREC CCARM 1238; type: cell-based, multidrug-resistant E. coli; conditions: broth microdilution, 37°C, 16 h, three independent experiments in triplicate, SD 14.0%
[11] = system: MRSA CCARM 3126; type: cell-based, Methicillin-resistant S. aureus; conditions: CCARM 3126, 16 h
[12] = system: MDREC CCARM 1229; type: cell-based, multidrug-resistant E. coli; conditions: broth microdilution, 37°C, 16 h, three independent experiments in triplicate, SD 14.0%
[13] = system: MRSA CCARM 3114; type: cell-based, Methicillin-resistant S. aureus; conditions: CCARM 3114, 16 h
[14] = system: P. aeruginosa KCTC2004; type: cell-based, Pseudomonas aeruginosa; conditions: KCTC2004, 16 h
[15] = system: Drug-resistant bacterial strains; conditions: average over the 18 drug-resistant bacterial strains of Table 3
Description: Escherichia coli KCTC 1682, E. coli KCTC 2593, E. coli KCTC 2571, Salmonella typhimurium KCTC 1926, Pseudomonas aeruginosa KCTC 1637, P. aeruginosa KCTC 2004, P. aeruginosa KCTC 2513, Bacillus subtilis KCTC 3068, B. subtilis KCTC 1021, B. subtilis KCTC 1022, Staphylococcus epidermidis KCTC 1917, Staphylococcus aureus KCTC 1621, S. aureus KCTC 1916, and S. aureus KCTC 3881 were purchased from the Korean Collection for Type Cultures, Korea Research Institute of Bioscience & Biotechnology (Taejon, Korea). Methicillin-resistant S. aureus (MRSA) (CCARM 3089, CCARM 3090, CCARM 3108, CCARM 3114, and CCARM 3126), multidrug-resistant E. coli (MDREC) (CCARM 1229 and CCARM 1238), multidrug-resistant S. typhimurium (MDRST) (CCARM 8003, CCARM 8007, and CCARM 8009), multidrug-resistant Acinetobacter baumanii (MDRAB) (CCARM 12005, CCARM 12035, CCARM 12036, CCARM 12037), and multidrug-resistant P. aeruginosa (MDRPA) (CCARM 2002, CCARM 2003, CCARM 2095, and CCARM 2163) were obtained from the Culture Collection of Antibiotic-Resistant Microbes (CCARM) at Seoul Women’s University in Korea. The antimicrobial activities of the peptides against selected organisms, including three Gram-positive, three Gram-negative, and five antibiotic-resistant bacteria, were determined using a broth microdilution assay. Briefly, single colonies of bacteria and fungi were inoculated into Luria-Bertani (LB) medium and cultured overnight at 37°C. An aliquot of the culture was transferred to 10 mL of fresh LB and incubated for an additional 3–5 h at 37°C until it reached the mid-logarithmic phase. Two-fold serial dilutions of the peptides in 1% peptone were prepared. The serial dilutions (100 µL) were added to 100 µL of cells (2×10^6 colony-forming units (CFU)/mL) in 96-well microtiter plates and incubated at 37°C for 16 h. […] MIC values were calculated as the average of triplicate measurements from three independent assays.

[16] = system: MDRST CCARM 8007; type: cell-based, multidrug-resistant S. typhimurium; conditions: broth microdilution, 37°C, 16 h, three independent experiments in triplicate, SD 14.0%
[17] = system: S. aureus KCTC1621; type: cell-based, Staphylococcus aureus; conditions: KCTC1621, 16 h
[18] = system: E.coli KCTC2571; type: cell-based, Escherichia coli; conditions: KCTC2571, 16 h
[19] = system: P. aeruginosa KCTC1637; type: cell-based, Pseudomonas aeruginosa; conditions: KCTC1637, 16 h
[20] = system: Standard bacterial strains; type: cell-based; conditions: average over the 14 standard bacterial strains of Table 2
[21] = system: E. coli KCTC1682; type: cell-based, Escherichia coli; conditions: KCTC1682, 16 h
[22] = system: MDRAB CCARM 12037; type: cell-based, multidrug-resistant Acinetobacter baumanii; conditions: broth microdilution, 37°C, 16 h, three independent experiments in triplicate, SD 14.0%
[23] = system: S. epidermidis KCTC1917; type: cell-based, Staphylococcus epidermidis; conditions: KCTC1917, 16 h
[24] = system: S. aureus KCTC3881; type: cell-based, Staphylococcus aureus; conditions: KCTC3881, 16 h
[25] = system: S. aureus KCTC1916; type: cell-based, Staphylococcus aureus; conditions: KCTC1916, 16 h
[26] = system: MDRPA CCARM 2003; type: cell-based, multidrug-resistant P. aeruginosa; conditions: broth microdilution, 37°C, 16 h, three independent experiments in triplicate, SD 14.0%
[27] = system: MRSA CCARM3089; type: cell-based, Methicillin-resistant S. aureus; conditions: CCARM3089, 16 h
[28] = system: B. subtilis KCTC1022; type: cell-based, Bacillus subtilis; conditions: KCTC1022, 16 h
[29] = system: MDRST CCARM 8009; type: cell-based, multidrug-resistant S. typhimurium; conditions: broth microdilution, 37°C, 16 h, three independent experiments in triplicate, SD 14.0%
[30] = system: B. subtilis KCTC1021; type: cell-based, Bacillus subtilis; conditions: KCTC1021, 16 h
[31] = system: P. aeruginosa KCTC2513; type: cell-based, Pseudomonas aeruginosa; conditions: KCTC2513, 16 h
[32] = system: MRSA CCARM 3108; type: cell-based, Methicillin-resistant S. aureus; conditions: CCARM 3108, 16 h
[33] = system: MDRAB CCARM 12005; type: cell-based, multidrug-resistant Acinetobacter baumanii; conditions: broth microdilution, 37°C, 16 h, three independent experiments in triplicate, SD 14.0%
[34] = system: MDRAB CCARM 12036; type: cell-based, multidrug-resistant Acinetobacter baumanii; conditions: broth microdilution, 37°C, 16 h, three independent experiments in triplicate, SD 14.0%

Sequence: FFHHIARGIVHVGKTIHRLVTG [Pis-F6A]
- MIC [1]: 4.0 µM
- MIC [2]: 32 µM
- MIC [3]: 2.0 µM
- MIC [4]: 4.0 µM
- MIC [5]: 32 µM
- MIC [6]: 4.0 µM
- MIC [7]: 4.0 µM
- MIC [8]: 4.0 µM
- MIC [9]: 16 µM
- MIC [10]: 32 µM
- MIC [11]: 16 µM
- MIC [12]: 32 µM
- MIC [13]: 16 µM
- MIC [14]: 8.0 µM
- Average MIC [15]: 15 µM
- MIC [16]: 16 µM
- MIC [17]: 4.0 µM
- MIC [18]: 4.0 µM
- MIC [19]: 4.0 µM
- Average MIC [20]: 6.3 µM
- MIC [21]: 2.0 µM
- MIC [22]: 4.0 µM
- MIC [23]: 4.0 µM
- MIC [24]: 4.0 µM
- MIC [25]: 2.0 µM
- MIC [26]: 4.0 µM
- MIC [27]: 32 µM
- MIC [28]: 2.0 µM
- MIC [29]: 16 µM
- MIC [30]: 16 µM
- MIC [31]: 16 µM
- MIC [32]: 16 µM
- MIC [33]: 4.0 µM
- MIC [34]: 4.0 µM

Sequence: FAHHIFRGIVHVGKTIHRLVTG [Pis-F2A]
- MIC [1]: 4.0 µM
- MIC [2]: 32 µM
- MIC [3]: 2.0 µM
- MIC [4]: 4.0 µM
- MIC [5]: 16 µM
- MIC [6]: 4.0 µM
- MIC [7]: 4.0 µM
- MIC [8]: 4.0 µM
- MIC [9]: 16 µM
- MIC [10]: 16 µM
- MIC [11]: 16 µM
- MIC [12]: 16 µM
- MIC [13]: 16 µM
- MIC [14]: 8.0 µM
- Average MIC [15]: 12 µM
- MIC [16]: 16 µM
- MIC [17]: 4.0 µM
- MIC [18]: 2.0 µM
- MIC [19]: 4.0 µM
- Average MIC [20]: 4.6 µM
- MIC [21]: 2.0 µM
- MIC [22]: 4.0 µM
- MIC [23]: 2.0 µM
- MIC [24]: 2.0 µM
- MIC [25]: 1.0 µM
- MIC [26]: 4.0 µM
- MIC [27]: 16 µM
- MIC [28]: 1.0 µM
- MIC [29]: 16 µM
- MIC [30]: 8.0 µM
- MIC [31]: 8.0 µM
- MIC [32]: 16 µM
- MIC [33]: 4.0 µM
- MIC [34]: 4.0 µM

Sequence: FFHHIKRGIKHVGKTIHRLVTG [Pis-F6K/V10K]
- MIC [1]: 2.0 µM
- MIC [2]: 16 µM
- MIC [3]: 4.0 µM
- MIC [4]: 2.0 µM
- MIC [5]: 8.0 µM
- MIC [6]: 4.0 µM
- MIC [7]: 4.0 µM
- MIC [8]: 4.0 µM
- MIC [9]: 8.0 µM
- MIC [10]: 8.0 µM
- MIC [11]: 8.0 µM
- MIC [12]: 8.0 µM
- MIC [13]: 8.0 µM
- MIC [14]: 8.0 µM
- Average MIC [15]: 6.4 µM
- MIC [16]: 8.0 µM
- MIC [17]: 4.0 µM
- MIC [18]: 4.0 µM
- MIC [19]: 4.0 µM
- Average MIC [20]: 5.0 µM
- MIC [21]: 2.0 µM
- MIC [22]: 4.0 µM
- MIC [23]: 4.0 µM
- MIC [24]: 4.0 µM
- MIC [25]: 4.0 µM
- MIC [26]: 4.0 µM
- MIC [27]: 8.0 µM
- MIC [28]: 4.0 µM
- MIC [29]: 8.0 µM
- MIC [30]: 8.0 µM
- MIC [31]: 8.0 µM
- MIC [32]: 8.0 µM
- MIC [33]: 4.0 µM
- MIC [34]: 4.0 µM
